Source: patent US20230109839A1, “THERAPEUTIC AGENT FOR TAUOPATHIES” (SUMITOMO PHARMA CO., LTD., priority 2020, published 2023)
Like-named read-outs stand apart in the source and are kept apart here.

Molecular target: T1, human Nav1.1 (Homo sapiens, UniProt P35498)
T1 construct: host or cells: HEK293
Experiment: Amplification of Nav1.1-derived voltage-gated sodium current (Nav1.1 current), automated patch clamp (Test 1)
Format: cell-based
Method in brief: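 HEK293 cells stably expressing human Nav1.1, restricted to cells with >500 pA current, were recorded by automated voltage-clamp patch clamp with a ramp voltage stimulus. Compounds were applied in HEPES-buffered extracellular solution with 1% DMSO. Amplification (%) = 100×(peak or AUC after/before compound)−100.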

[1] = Concentration for evaluation 1 μM, HEK293 cell line stably expressing human Nav1.1
[2] = Concentration for evaluation 10 μM, HEK293 cell line stably expressing human Nav1.1
[3] = HEK293, concentration for evaluation 1 μM, HEK293 stably expressing human Nav1.1, read-out: Nav1.1 current amplification rate (%)
[4] = concentration for evaluation 1 μM, HEK293 stably expressing human Nav1.1
[5] = Concentration for evaluation 50 μM, HEK293 cell line stably expressing human Nav1.1
[6] = HEK293, Concentration for evaluation 1 μM, HEK293 cell line stably expressing human Nav1.1, read-out: Nav1.1 current amplification rate (%)
[7] = Concentration for evaluation 3 μM, HEK293 cell line stably expressing human Nav1.1

CC1(C)CCN(c2cnc3cnn(CC(=O)Nc4ccc5ncnn5c4)c3n2)CC1 [Example 654]
Nav1.1 current amplification rate (%) [1]: 23%

CC1CC=C(c2ccc(=O)n(CC(=O)N3CCc4c3ccnc4N3CCOCC3)n2)CC1 (centres unmarked) [Example 319]
Nav1.1 current amplification rate (%) [1]: 134%

CC1CC=C(c2ccc(=O)n(CC(=O)N3CCc4c(-c5cn[nH]c5)cncc43)n2)CC1 (centres unmarked) [Example 311]
Nav1.1 current amplification rate (%) [1]: 265%

CN(c1cnc2cnn(CC(=O)Nc3ccc4cnncc4c3)c2n1)C1CC1 [Example 733]
Nav1.1 current amplification rate (%) [1]: 76%

CN(c1cnc2cnn(CC(=O)Nc3ccc4nccnc4c3)c2n1)C1CCCC1 [Example 680]
Nav1.1 current amplification rate (%) [1]: 50%

N#Cc1ccc(NC(=O)Cn2nc(N3CCCCC3)ccc2=O)cn1 [Example 110]
activation at 10 µM (HEK293, Concentration for evaluation 10 μM, HEK293 cell line stably expressing human Nav1.1, read-out: Nav1.1 current amplification rate (%)): 12%

Cc1ccc(N2CCN(C(=O)Cn3nc(C4=CCC(C)CC4)ccc3=O)CC2)cn1 (centres unmarked) [Example 396]
Nav1.1 current amplification rate (%) [2]: 136%

CC1CCN(c2ncc3cnn(CC(=O)Nc4ccc(C#N)cn4)c3n2)CC1(F)F (centres unmarked) [Example 850]
activation at 1 µM [3]: 79%

O=C(Cn1ncc2ccc(C3=CCC(F)(F)CC3)nc21)Nc1ccn2ccnc2c1 [Example 867]
Nav1.1 current amplification rate (%) [4]: 65%

COc1cc(C2=CCC(C)CC2)nn(CC(=O)N2CCN(c3cncc(F)c3)CC2)c1=O (centres unmarked) [Example 488]
Nav1.1 current amplification rate (%) [2]: 376%

COc1cc(C2=CCC(C)CC2)nn(CC(=O)Nc2ccn3ccnc3c2)c1=O (centres unmarked) [Example 463]
Nav1.1 current amplification rate (%) [2]: 218%

COc1cncc(C2=CCN(C(=O)Cn3nc(C4=CCC(C)CC4)ccc3=O)CC2)c1 (centres unmarked) [Example 403]
Nav1.1 current amplification rate (%) [2]: 270%

CN(c1ncc2cnn(CC(=O)Nc3cnc4cccnc4c3)c2n1)C1CC(C)(C)C1 [Example 844]
activation at 1 µM [3]: 221%

N#Cc1ccc(NC(=O)Cn2nc(N3CCC4(CCCO4)CC3)ccc2=O)cc1 [Example 29]
Nav1.1 current amplification rate (%) [2]: 20%

O=C(Cn1nc(C2=CCCC2)ccc1=O)Nc1ccn2ccnc2c1 [Example 457]
Nav1.1 current amplification rate (%) [5]: 29%

CC1CCN(c2ccc(=O)n(CC(=O)Nc3ccnc(N(C)C)c3)n2)CC1 [Example 57]
Nav1.1 current amplification rate (%) [2]: 48%

CC1(C)CC=C(c2cnc3cnn(CC(=O)Nc4ccn5ccnc5c4)c3n2)CC1 [Example 737]
activation at 1 µM [6]: 249%

N#Cc1ccc(NC(=O)Cn2nc(N3CC4CC4C3)ccc2=O)cc1 (centres unmarked) [Example 18]
Nav1.1 current amplification rate (%) [2]: 11%

CC1CCN(c2cnc3cnn(CC(=O)Nc4ccn5ncnc5c4)c3n2)CC1 [Example 572, 2-[6-(4-Methylpiperidin-1-yl)-1H-pyrazolo[3,4-b]pyrazin-1-yl]-N-([1,2,4]triazolo[1,5-a]pyridin-7-yl)acetamide]
activation at 1 µM [6]: 49%

N#Cc1cnc(NC(=O)Cn2ncc3cnc(N4CCC5(CC5)C(F)(F)C4)nc32)cn1 [Example 828]
Nav1.1 current amplification rate (%) [4]: 108%

CN(c1cnc2cnn(CC(=O)Nc3cc4cccnc4cn3)c2n1)C1CC1 [Example 729]
Nav1.1 current amplification rate (%) [2]: 55%

CN(c1cnc2cnn(CC(=O)N3CCc4c3cccc4C(C)(C)O)c2n1)C1CC1 [Example 734]
Nav1.1 current amplification rate (%) [1]: 107%

COC1CN(c2cccc3c2CCN3C(=O)Cn2nc(C3=CCC(C)(C)CC3)ccc2=O)C1 [Example 434]
Nav1.1 current amplification rate (%) [2]: 232%

CC12CCC(CN(c3ccc(=O)n(CC(=O)Nc4ccc(C#N)cc4)n3)C1)C2(C)C (centres unmarked) [Example 23]
Nav1.1 current amplification rate (%) [2]: 28%

CC1CC=C(c2ccc(=O)n(CC(=O)N3CCN(Cc4cccnc4)CC3)n2)CC1 (centres unmarked) [Example 393]
Nav1.1 current amplification rate (%) [2]: 19%

CC1CC=C(c2ccc(=O)n(CC(=O)Nc3ccnc(C#N)c3)n2)CC1 (centres unmarked) [Example 362]
Nav1.1 current amplification rate (%) [1]: 133%

CC1(C)CC=C(c2ccc(=O)n(CC(=O)Nc3ccn4ccnc4c3)n2)CC1 [Example 425]
Nav1.1 current amplification rate (%) [2]: 283%

CC1CC=C(c2ccc(=O)n(CC(=O)Nc3cncc(C4=CCOC4)c3)n2)CC1 (centres unmarked) [Example 381]
Nav1.1 current amplification rate (%) [1]: 153%

COCCNCc1cccc2c1CCN2C(=O)Cn1nc(C2=CCC(C)CC2)ccc1=O (centres unmarked) [Example 314]
Nav1.1 current amplification rate (%) [1]: 9%

Cc1ccc(-c2ncc3cnn(CC(=O)Nc4ccn5ncnc5c4)c3n2)o1 [Example 772]
Nav1.1 current amplification rate (%) [5]: 35%

CC1CC=C(c2ccc(=O)n(CC(=O)Nc3ccc(CO)nc3)n2)CC1 (centres unmarked) [Example 376]
Nav1.1 current amplification rate (%) [2]: 44%

CN(c1cnc2cnn(CC(=O)N3CCc4c(-c5ccnnc5)cccc43)c2n1)C1CC1 [Example 699]
Nav1.1 current amplification rate (%) [1]: 366%

CC1CC=C(c2ccc(=O)n(CC(=O)Nc3ccc4oc(C(F)F)nc4c3)n2)CC1 (centres unmarked) [Example 243]
Nav1.1 current amplification rate (%) [2]: 276%

Cc1ccc(-c2ccc(=O)n(CC(=O)N3CCc4cc(N5CCOCC5)ccc43)n2)cc1 [Example 158]
Nav1.1 current amplification rate (%) [2]: 122%

Cc1cc2nc(NC(=O)Cn3nc(C4=CCC(C)CC4)ccc3=O)ccn2n1 (centres unmarked) [Example 340]
Nav1.1 current amplification rate (%) [5]: 41%

CC1CC=C(c2ccc(=O)n(CC(=O)N3CCc4c(C=C5CCNCC5)cccc43)n2)CC1 (centres unmarked) [Example 293]
Nav1.1 current amplification rate (%) [5]: 55%

CC1(C)CN(c2ccc3cnn(CC(=O)Nc4ccn5ncnc5c4)c3n2)C1 [Example 859]
Nav1.1 current amplification rate (%) (concentration for evaluation 50 μM, HEK293 stably expressing human Nav1.1): 39%

CC1CC=C(c2ccc(=O)n(CC(=O)N3CCN(c4nccs4)CC3)n2)CC1 (centres unmarked) [Example 414]
Nav1.1 current amplification rate (%) [2]: 40%

CC1CC=C(c2ccc3cnn(CC(=O)Nc4ccn5ncnc5c4)c3n2)CC1 (centres unmarked) [Example 852]
Nav1.1 current amplification rate (%) [4]: 111%

CC1CC=C(c2ccc(=O)n(CC(=O)N3CCN(c4ccccn4)CC3)n2)CC1 (centres unmarked) [Example 394]
Nav1.1 current amplification rate (%) [2]: 98%

CO[C@H]1CCN(Cc2cccc3c2CCN3C(=O)Cn2nc(C3=CCC(C)CC3)ccc2=O)C1 (some centres unmarked) [Example 272]
Nav1.1 current amplification rate (%) [1]: 127%

Cc1nc2cc(NC(=O)Cn3ncc4ncc(N(C)C5CCCC5)nc43)cnc2s1 [Example 676]
Nav1.1 current amplification rate (%) [1]: 36%

CC1CC=C(c2ccc(=O)n(CC(=O)Nc3ccnc(CO)c3)n2)CC1 (centres unmarked) [Example 370]
Nav1.1 current amplification rate (%) [2]: 35%

CN1CCN(c2cccc3c2CCN3C(=O)Cn2ncc3ncc(N(C)C4CCC4)nc32)CC1 [Example 697]
Nav1.1 current amplification rate (%) [1]: 21%

O=C(Cn1ncc2ncc(N3CCC4(CC4)C(F)(F)C3)nc21)Nc1ccc2ncnn2c1 [Example 659]
Nav1.1 current amplification rate (%) [1]: 25%

O=C(Cn1nc(C2=CCC(C(F)(F)F)CC2)ccc1=O)Nc1ccc2ocnc2c1 (racemic) [Example 446]
Nav1.1 current amplification rate (%) [2]: 333%

Cc1ccc(-c2ccc(=O)n(CC(=O)Nc3ccc4ocnc4c3)n2)cn1 [Example 452]
Nav1.1 current amplification rate (%) [2]: 10%

CC1(C)CC=C(c2ccc(=O)n(CC(=O)N3CCc4c(C5CN(C6COC6)C5)cccc43)n2)CC1 [Example 438]
Nav1.1 current amplification rate (%) [7]: 404%

CC1(C)CCN(c2ncc3cnn(CC(=O)Nc4ccc5cncnc5c4)c3n2)CC1 [Example 809]
Nav1.1 current amplification rate (%) (concentration for evaluation 10 μM, HEK293 stably expressing human Nav1.1): 64%

CC1CC=C(c2ccc(=O)n(CC(=O)N3CC=C(c4ccccc4)CC3)n2)CC1 (centres unmarked) [Example 257]
Nav1.1 current amplification rate (%) [7]: 45%

CC1CC=C(c2ccc(=O)n(CC(=O)N3CCc4c(CN5CCCC5)cccc43)n2)CC1 (centres unmarked) [Example 271]
Nav1.1 current amplification rate (%) [7]: 48%

Cc1cc(NC(=O)Cn2ncc3ncc(N(C)C4CCCC4)nc32)cc2nccn12 [Example 684]
Nav1.1 current amplification rate (%) [1]: 39%

CC1CC=C(c2ccc(=O)n(CC(=O)N3CCC(c4ccncc4)CC3)n2)CC1 (centres unmarked) [Example 259]
Nav1.1 current amplification rate (%) [2]: 71%
